Reference: publication PMC6964649, “Light-controllable dithienylethene-modified cyclic peptides: photoswitching the in vivo toxicity in zebrafish embryos” (Beilstein Journal of Organic Chemistry, 2020)
Starred links: 1 amine or outer side, 2 acyl side, 3 side chain; linkers in the order of their positions; H or OH if unused. Positions of bridges follow the written chain, without caps; N, C: chain ends. Non-standard residues stand in square brackets, D forms with d. Residues, ends and D or L forms follow the SMILES beside them. X2 = Cc1sc(C(=O)[C@@H]2CCCN2[*:2])cc1C1=C(c2cc(C(=O)[*:1])sc2C)CCC1; Leu(3R-OH) = CC(C)[C@@H](O)[C@H](N)C(=O)O; X1 = CCCCN([C@@H](CC(C)C)C(=O)[*:2])[*:1]; Orn = NCCC[C@H](N)C(=O)O

Legend:
[1] = test system: D. rerio embryos; test: D. rerio embryotoxicity "photoactivation" assay (ring-closed photoform in darkness, then in situ photoconversion); assay type: in vivo, Danio rerio; details: for LD50 (opened)^1h / LD50 (opened)^24h: after 24 h with ring-closed form in dark, in situ illumination 10 min, λ = 570 nm, approx. 20 mW/cm^2; for LD50 (opened)^1h: mortality 1 h after illumination, embryos 4 dpf; for LD50 (opened)^1h / LD50 (opened)^24h / LD50 (closed)^24h: value ± STD; for LD50 (opened)^24h: mortality 24 h after illumination, embryos 5 dpf at readout; for LD50(closed)^24h/LD50(open)^24h ratio: phototherapeutic safety window, ring-closed 24 h LD50 (dark) divided by ring-open 24 h LD50 (direct application); for LD50 (closed)^24h: ring-closed photoform applied to embryos at 3 dpf, 24 h in the dark, sealed vials, E3 medium, 0.2% DMSO
Protocol: (§1) To establish the assay for screening the photoswitchable peptides, we first studied the toxicity of our prototype 2 by varying the assay conditions. The parent peptide GS 1 was used as a control. […] We measured the doses causing the death of 50% embryos (LD50). We tested two different assay variations: in one version, the LD50(open) was determined after direct application of 1 or of the ring-open form of 2. In the other variant, the photoswitchable peptide was applied in the ring-closed photoform in the darkness, its LD50(closed) was recorded, and then in situ illumination (“photoactivation”) was applied to switch into the ring-open photoform and obtain the respective LD50(opened) values (see Figure 2 for the study design and the killing curves).
(§2) Figure 2 Two versions of the D. rerio embryotoxicity assay for DAE-modified peptides: timelines, peptide photostates, ages of larvae, and definitions of the measured characteristics. (A) Direct application of the non-photoswitchable parent GS 1 or of the ring-open photoform of our prototype 2, and the corresponding killing curves for 1 (C, top, black) and 2 (C, bottom, red). (B) “Photoactivation” assay: initial application of the ring-closed photoform, incubation in darkness, followed by in situ photoconversion into the ring-open(ed) photoform, with the corresponding killing curves for 1 (D, top) and 2 (D, bottom, green for ring-closed, red for ring-open isomers). The latter panel illustrates the “phototherapeutic safety window” (green arrow) as the difference in toxicity between the ring-closed and the ring-open isomers upon photoactivation.
(§3) Each time, 12–15 or 18–20 zebrafish embryos at 3 dpf were treated by applying the corresponding peptide dissolved in dimethyl sulfoxide (final dimethyl sulfoxide concentration was 0.2%). Double-concentrated peptide stock solutions (64–512 µg/mL) were prepared by weighing lyophilized peptides, dissolving in 10% dimethyl sulfoxide and constructing two-fold dilution series with ten–eleven dilution steps. In the photoconversion experiments, in order to prevent spontaneous photoswitching of the ring-closed peptides by vis light, zebrafish embryos and peptides were kept in the dark before the first readout, and the vials were sealed to avoid evaporation of the embryonic medium (E3) at prolonged incubation times. After the first screen, without exchanging any solution, the vials with embryos and ring-closed photoforms were exposed to intense illumination for 10 min (LUMATEC Superlite 410 light source, λ = 570 nm, irradiance approximately 20 mW/cm^2). Mortality was then determined under ambient light conditions at 1 h and 24 h after the illumination procedure.

[2] = test system: D. rerio embryos; test: D. rerio embryotoxicity assay, direct application of ring-open photoform; assay type: in vivo, Danio rerio; details: direct application of 1 or ring-open photoform, zebrafish embryos at 3 dpf, final DMSO 0.2%, ambient light, value ± STD; for LD50 (open)^1h: 1 h incubation, 12–15 or 18–20 embryos; for LD50 (open)^3h: 3 h incubation; for LD50 (open)^24h: 24 h incubation
Protocol: as §1, §2, §3

[3] = observed water solubility and aggregation; assay type: physicochemical; details: ring-open form; observation in words
Description: We have also analyzed the correlation between the empirical low-pH hydrophobicity of the peptides (as assessed from the retention times in reversed-phase HPLC) and toxicity against zebrafish embryos. Independent on the photoisomeric state and the type of toxicity assay, decreasing polarity of the peptides is accompanied by an increase in toxicity against zebrafish embryos (compare Figure 3A and 3B). Within the different series of peptides (the series are marked with different colors in Figure 3 for clarity) we get almost linear toxicity–hydrophobicity correlations in most cases, and all the outliers are readily explainable.

Compound	LD50 (opened)^1h [1] [µg/mL]	LD50 (opened)^24h [1] [µg/mL]	LD50(closed)^24h/LD50(open)^24h ratio [1]	LD50 (closed)^24h [1] [µg/mL]	LD50 (open)^1h [2] [µg/mL]	LD50 (open)^3h [2] [µg/mL]	LD50 (open)^24h [2] [µg/mL]	water solubility and aggregation [3]
CCCCN1C(=O)[C@@H](Cc2ccccc2)NC(=O)[C@H](CC(C)C)NC(=O)[C@H](CCCN)NC(=O)[C@H]([C@@H](C)CC)NC(=O)c2cc(c(C)s2)C2=C(CCC2)c2cc(sc2C)C(=O)[C@@H]2CCCN2C(=O)[C@H](CC(C)C)NC(=O)[C@H](CCCN)NC(=O)[C@H]([C@@H](C)CC)NC(=O)[C@@H]1CC(C)C [Peptide 11] (I[Orn]L[dF][X1]I[Orn]L; linker N-C via X2)	4.0 ± 0.3	3.0 ± 1.0	2.8	4.4 ± 0.2	3.0 ± 1.8	2.4 ± 0.7	1.6 ± 0.1	very low water solubility and tendency to aggregate
Cc1sc2cc1C1=C(CCC1)c1cc(sc1C)C(=O)[C@@H]1CCCN1C(=O)[C@H](C(C)C)NC(=O)[C@H](CCCN)NC(=O)[C@H]([C@H](O)C(C)C)NC(=O)[C@@H]1CCCN1C(=O)[C@@H](Cc1ccccc1)NC(=O)[C@H](C(C)C)NC(=O)[C@H](CCCN)NC(=O)[C@H]([C@H](O)C(C)C)NC2=O [Peptide 15] ([Leu(3R-OH)][Orn]V[dF]P[Leu(3R-OH)][Orn]V; linker N-C via X2)	22.9 ± 0.2	7.2 ± 0.7	7.8	56.1 ± 12.2	36.5 ± 2.1	14.1 ± 6.0	7.2 ± 3.8	–
Cc1sc2cc1C1=C(CCC1)c1cc(sc1C)C(=O)[C@@H]1CCCN1C(=O)[C@H](CC(C)C)NC(=O)[C@H](CCCCN)NC(=O)[C@H](C(C)C)NC(=O)[C@H](CCCCN)NC(=O)[C@H](CC(C)C)NC(=O)[C@@H]1CCCN1C(=O)[C@@H](Cc1ccccc1)NC(=O)[C@H](C(C)C)NC(=O)[C@H](CCCCN)NC(=O)[C@H](CC(C)C)NC(=O)[C@H](CCCCN)NC(=O)[C@H](C(C)C)NC2=O [Peptide 16] (VKLKV[dF]PLKVKL; linker N-C via X2)	5.6 ± 0.5	5.2 ± 0.5	3.8	6.0 ± 0.1	3.1 ± 1.0	3.1 ± 1.0	1.6 ± 0.0	–
Cc1sc2cc1C1=C(CCC1)c1cc(sc1C)C(=O)[C@@H]1CCCN1C(=O)[C@H](C(C)C)NC(=O)[C@H](CCCCN)NC(=O)[C@H](C(C)C)NC(=O)[C@@H](CCCCN)NC(=O)[C@H](CC(C)C)NC(=O)[C@@H]1CCCN1C(=O)[C@@H](Cc1ccccc1)NC(=O)[C@H](C(C)C)NC(=O)[C@H](CCCCN)NC(=O)[C@H](CC(C)C)NC(=O)[C@H](CCCCN)NC(=O)[C@H](C(C)C)NC2=O [Peptide 17] (VKLKV[dF]PL[dK]VKV; linker N-C via X2)	9.9 ± 0.1	9.4 ± 0.7	3.1	9.9 ± 0.1	10.5 ± 5.8	10.5 ± 5.8	3.2 ± 0.2	–
Cc1sc2cc1C1=C(CCC1)c1cc(sc1C)C(=O)[C@@H]1CCCN1C(=O)[C@H](C(C)C)NC(=O)[C@H](CCCCN)NC(=O)[C@H](C(C)C)NC(=O)[C@H](CC(C)C)NC(=O)[C@H](CCCCN)NC(=O)[C@@H]1CCCN1C(=O)[C@@H](Cc1ccccc1)NC(=O)[C@H](C(C)C)NC(=O)[C@H](CCCCN)NC(=O)[C@H](CC(C)C)NC(=O)[C@H](CCCCN)NC(=O)[C@H](C(C)C)NC2=O [Peptide 18] (VKLKV[dF]PKLVKV; linker N-C via X2)	12.3 ± 1.5	12.3 ± 1.5	30.8	12.3 ± 1.5	0.9 ± 0.4	0.9 ± 0.4	0.4 ± 0.2	–
DAE-OrnN3-OLfPVOL (bicyclic or more) [Peptide 20, "click"-chemistry connected homodimer of DAE-modified macrocycle (series v)]	8.4 ± 3.3	3.5 ± 0.6	7.1	10.7 ± 0.1	3.7 ± 1.9	3.7 ± 1.9	1.5 ± 0.0	–
